Patent CN101879305A, “血清胸腺因子在制备抗肿瘤药物、肿瘤物理及化学治疗药物的保护药物方面的用途” (priority 2007, dated 2010)
Ends that are not written are not given here.

Columns and labels:
EAC腹水瘤 = experiment: Anti-tumour test, EAC ascites tumour in mice (Example 1); type: in vivo, 昆明小鼠; conditions: positive control 5-氟尿嘧啶 25mg·kg-1, every other day, three times
[1] = Immune indicators in Co60-irradiated mice (white cell count, carbon clearance, organ indices) (Example 8); type: in vivo, 昆明鼠; conditions: 650 rad Co60, after one week
H22实体瘤 = experiment: Anti-tumour test, H22 solid tumour in mice (Example 2); type: in vivo, 昆明小鼠; conditions: positive control 环磷酰胺 20mg·kg-1, single dose
Walker-256瘤 = experiment: Anti-tumour test, Walker-256 tumour in rats (Example 3); type: in vivo, Wistar大鼠; conditions: positive control 环磷酰胺 89.2mg.kg-1, single dose
人肝癌Heps瘤 = experiment: Anti-tumour test, human liver cancer Heps xenograft in nude mice (Example 4); type: in vivo, 裸鼠; conditions: positive control 环磷酰胺 10mg·kg-1, single dose
[2] = Acute toxicity, single tail-vein injection, 7-day observation (Example 7); type: in vivo, 昆明小鼠; conditions: for 死亡(%): 20 mice, 7 days; for 给药前体重: before dosing (baseline)

## O=c1[nH]cc(F)c(=O)[nH]1 [5-氟尿嘧啶]
EAC腹水瘤
  生存时间(天): 24.3±4.1 天
EAC腹水瘤; vs blank group
  生命延长率: 82.7 %

## C#C[C@]1(O)[C@H](O)C[C@H]2[C@@H]3CCc4cc(OC5CCCC5)ccc4[C@H]3CC[C@@]21C [尼尔雌醇]
[1]; positive control 尼尔雌醇 0.05mg/只 single gavage
  体重增加: 3.47
[1]; 尼尔雌醇 0.05mg/只 single gavage
  吞噬指数α: 6.00
  廓清指数K: 0.033
  白细胞个数(个/mm3): 2693 个/mm3
  胸腺指数(mg/10g): 28.32 mg/10g
  脾指数(mg/10g): 8.96 mg/10g

## C#C[C@]1(O)[C@H](O)C[C@H]2[C@@H]3CCc4cc(OC5CCCC5)ccc4[C@H]3CC[C@@]21C [环磷酰胺]
H22实体瘤
  实体瘤的重量: 0.6 ± 0.5 g
H22实体瘤; vs blank group
  抑瘤率: 84.8 %
Walker-256瘤
  肿瘤的重量: 2.6 ± 1.7 g
Walker-256瘤; vs blank group
  抑瘤率(%): 85.4 %
人肝癌Heps瘤
  抑瘤率: 62.43 %
  肿瘤的体积(mm3): 99.73±68.60 mm3
  肿瘤的重量: 0.57 ± 0.12 g

## EAKSQGGSN [FTS, Glu-Ala-Lys-Ser-Gln-Gly-Gly-Ser-Asn]
[2]; 5.0 mg/kg (0.5 mg/ml) i.v. tail vein once
  死亡(%): 0 %
[2]; 5.0 mg/kg group
  给药前体重: 22.3 ± 2.1 g
[2]; 10.0 mg/kg (1.0 mg/ml) i.v. tail vein once
  死亡(%): 0 %
[2]; 10.0 mg/kg group
  给药前体重: 23.4 ± 3.1 g
[2]; 50.0 mg/kg (5.0 mg/ml) i.v. tail vein once
  死亡(%): 0 %
[2]; 50.0 mg/kg group
  给药前体重: 23.6 ± 2.5 g
[2]; 100.0 mg/kg (10.0 mg/ml) i.v. tail vein once
  死亡(%): 0 %
[2]; 100.0 mg/kg group
  给药前体重: 23.1 ± 2.8 g
[2]; 5.0, 10.0, 50.0 and 100.0 mg/kg groups, i.v.
  毒性反应或死亡: 未发现任何毒性反应或死亡
